Assay results reported in PubChem BioAssay (NCI).
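Grown in 96-well plates, cells were treated for 48 hours with each compound at five concentrations. Insufficient inhibition: endpoint recorded as highest concentration tested. TGI: total growth inhibition.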

Experiments:
Assay in all cases: NCI-60 cell line screen, 48 h
HCT-15 colon = system: HCT-15 colon
SF-268 CNS = system: SF-268 CNS
ACHN renal = system: ACHN renal
SF-295 CNS = system: SF-295 CNS
HOP-92 NSCLC = system: HOP-92 NSCLC
KM12 colon = system: KM12 colon
SNB-75 CNS = system: SNB-75 CNS
OVCAR-8 ovarian = system: OVCAR-8 ovarian
SNB-19 CNS = system: SNB-19 CNS
RXF 393 renal = system: RXF 393 renal
A549 NSCLC = system: A549 NSCLC
UO-31 renal = system: UO-31 renal
MOLT-4 leukemia = system: MOLT-4 leukemia
M19-MEL melanoma = system: M19-MEL melanoma
HCT-116 colon = system: HCT-116 colon
OVCAR-4 ovarian = system: OVCAR-4 ovarian
HOP-62 NSCLC = system: HOP-62 NSCLC
TK-10 renal = system: TK-10 renal
SK-MEL-28 melanoma = system: SK-MEL-28 melanoma
DMS 273 small cell lung = system: DMS 273 small cell lung
SK-MEL-5 melanoma = system: SK-MEL-5 melanoma
OVCAR-3 ovarian = system: OVCAR-3 ovarian
SW-620 colon = system: SW-620 colon
NCI-H23 lung = system: NCI-H23 lung
XF 498 CNS = system: XF 498 CNS
HT29 colon = system: HT29 colon
NCI-H522 lung = system: NCI-H522 lung
CCRF-CEM leukemia = system: CCRF-CEM leukemia
SF-539 CNS = system: SF-539 CNS
K-562 leukemia = system: K-562 leukemia
HL-60(TB) leukemia = system: HL-60(TB) leukemia
KM20L2 colon = system: KM20L2 colon
EKVX NSCLC = system: EKVX NSCLC
UACC-62 melanoma = system: UACC-62 melanoma
UACC-257 melanoma = system: UACC-257 melanoma
786-0 renal = system: 786-0 renal
RXF-631 renal = system: RXF-631 renal
COLO 205 colon = system: COLO 205 colon
DLD-1 colon = system: DLD-1 colon
RPMI-8226 leukemia = system: RPMI-8226 leukemia
SN12C renal = system: SN12C renal
SNB-78 CNS = system: SNB-78 CNS
U251 CNS = system: U251 CNS
HCC-2998 colon = system: HCC-2998 colon
NCI-H460 lung = system: NCI-H460 lung
M14 melanoma = system: M14 melanoma
OVCAR-5 ovarian = system: OVCAR-5 ovarian
LXFL 529 NSCLC = system: LXFL 529 NSCLC
SK-MEL-2 melanoma = system: SK-MEL-2 melanoma
IGROV1 ovarian = system: IGROV1 ovarian
MALME-3M melanoma = system: MALME-3M melanoma
LOX IMVI melanoma = system: LOX IMVI melanoma
CAKI-1 renal = system: CAKI-1 renal
SK-OV-3 ovarian = system: SK-OV-3 ovarian
NCI-H226 lung = system: NCI-H226 lung
DMS 114 small cell lung = system: DMS 114 small cell lung
A498 renal = system: A498 renal

O=C1CCC(=O)N1CNc1cccc(NCN2C(=O)CCC2=O)c1
TGI (HCT-15 colon): > 100 µM
TGI (SF-268 CNS): > 100 µM
TGI (ACHN renal): > 100 µM
TGI (SF-295 CNS): > 100 µM
TGI (HOP-92 NSCLC): > 100 µM
TGI (KM12 colon): > 100 µM
TGI (SNB-75 CNS): > 100 µM
TGI (OVCAR-8 ovarian): > 100 µM
TGI (SNB-19 CNS): > 100 µM
TGI (RXF 393 renal): > 100 µM
TGI (A549 NSCLC): > 100 µM
TGI (UO-31 renal): > 100 µM
TGI (MOLT-4 leukemia): > 100 µM
TGI (M19-MEL melanoma): > 100 µM
TGI (HCT-116 colon): > 100 µM
TGI (OVCAR-4 ovarian): > 100 µM
TGI (HOP-62 NSCLC): > 100 µM
TGI (TK-10 renal): > 100 µM
TGI (SK-MEL-28 melanoma): > 100 µM
TGI (DMS 273 small cell lung): > 100 µM
TGI (SK-MEL-5 melanoma): > 100 µM
TGI (OVCAR-3 ovarian): > 100 µM
TGI (SW-620 colon): > 100 µM
TGI (NCI-H23 lung): > 100 µM
TGI (XF 498 CNS): > 100 µM
TGI (HT29 colon): > 100 µM
TGI (NCI-H522 lung): > 100 µM
TGI (CCRF-CEM leukemia): > 100 µM
TGI (SF-539 CNS): > 100 µM
TGI (K-562 leukemia): > 100 µM
TGI (HL-60(TB) leukemia): 49.8 µM
TGI (KM20L2 colon): 28.4 µM
TGI (EKVX NSCLC): > 100 µM
TGI (UACC-62 melanoma): > 100 µM
TGI (UACC-257 melanoma): > 100 µM
TGI (786-0 renal): > 100 µM
TGI (RXF-631 renal): > 100 µM
TGI (COLO 205 colon): > 100 µM
TGI (DLD-1 colon): > 100 µM
TGI (RPMI-8226 leukemia): 46.1 µM
TGI (SN12C renal): > 100 µM
TGI (SNB-78 CNS): > 100 µM
TGI (U251 CNS): > 100 µM
TGI (HCC-2998 colon): > 100 µM
TGI (NCI-H460 lung): > 100 µM
TGI (M14 melanoma): > 100 µM
TGI (OVCAR-5 ovarian): > 100 µM
TGI (LXFL 529 NSCLC): > 100 µM
TGI (SK-MEL-2 melanoma): > 100 µM
TGI (IGROV1 ovarian): > 100 µM
TGI (MALME-3M melanoma): > 100 µM

COc1ccc(Nc2nc(C#N)c(N)s2)cc1
TGI (HCT-15 colon): > 100 µM
TGI (SF-268 CNS): > 100 µM
TGI (ACHN renal): 60.3 µM
TGI (SF-295 CNS): 91.3 µM
TGI (HOP-92 NSCLC): > 100 µM
TGI (KM12 colon): > 100 µM
TGI (SNB-75 CNS): > 100 µM
TGI (OVCAR-8 ovarian): > 100 µM
TGI (SNB-19 CNS): > 100 µM
TGI (A549 NSCLC): > 100 µM
TGI (UO-31 renal): > 100 µM
TGI (LOX IMVI melanoma): 56.1 µM
TGI (HCT-116 colon): > 100 µM
TGI (OVCAR-4 ovarian): > 100 µM
TGI (HOP-62 NSCLC): > 100 µM
TGI (TK-10 renal): 89.6 µM
TGI (SK-MEL-28 melanoma): > 100 µM
TGI (DMS 273 small cell lung): > 100 µM
TGI (OVCAR-3 ovarian): > 100 µM
TGI (SW-620 colon): > 100 µM
TGI (NCI-H23 lung): 47.8 µM
TGI (XF 498 CNS): 64 µM
TGI (HT29 colon): > 100 µM
TGI (NCI-H522 lung): > 100 µM
TGI (CAKI-1 renal): > 100 µM
TGI (SF-539 CNS): > 100 µM
TGI (K-562 leukemia): > 100 µM
TGI (SK-OV-3 ovarian): > 100 µM
TGI (HL-60(TB) leukemia): 89.2 µM
TGI (KM20L2 colon): > 100 µM
TGI (UACC-62 melanoma): > 100 µM
TGI (UACC-257 melanoma): > 100 µM
TGI (786-0 renal): > 100 µM
TGI (RXF-631 renal): > 100 µM
TGI (COLO 205 colon): > 100 µM
TGI (DLD-1 colon): > 100 µM
TGI (RPMI-8226 leukemia): 77.8 µM
TGI (SN12C renal): > 100 µM
TGI (SNB-78 CNS): > 100 µM
TGI (U251 CNS): > 100 µM
TGI (NCI-H460 lung): > 100 µM
TGI (M14 melanoma): > 100 µM
TGI (OVCAR-5 ovarian): > 100 µM
TGI (LXFL 529 NSCLC): > 100 µM
TGI (SK-MEL-2 melanoma): > 100 µM
TGI (IGROV1 ovarian): > 100 µM
TGI (NCI-H226 lung): > 100 µM
TGI (MALME-3M melanoma): > 100 µM

CC(O)C(C(=O)O)N(CC1(O)OCC(O)C(O)C1O)N=O (configuration not stated)
TGI (ACHN renal): > 100 µM
TGI (HOP-92 NSCLC): > 100 µM
TGI (KM12 colon): > 100 µM
TGI (SNB-75 CNS): > 100 µM
TGI (OVCAR-8 ovarian): > 100 µM
TGI (RXF 393 renal): > 100 µM
TGI (A549 NSCLC): > 100 µM
TGI (UO-31 renal): > 100 µM
TGI (DMS 114 small cell lung): > 100 µM
TGI (MOLT-4 leukemia): > 100 µM
TGI (LOX IMVI melanoma): > 100 µM
TGI (M19-MEL melanoma): > 100 µM
TGI (HCT-116 colon): > 100 µM
TGI (HOP-62 NSCLC): > 100 µM
TGI (TK-10 renal): > 100 µM
TGI (SK-MEL-28 melanoma): > 100 µM
TGI (DMS 273 small cell lung): > 100 µM
TGI (OVCAR-3 ovarian): > 100 µM
TGI (SW-620 colon): > 100 µM
TGI (NCI-H23 lung): > 100 µM
TGI (XF 498 CNS): > 100 µM
TGI (HT29 colon): > 100 µM
TGI (NCI-H522 lung): > 100 µM
TGI (CCRF-CEM leukemia): > 100 µM
TGI (SF-539 CNS): > 100 µM
TGI (K-562 leukemia): > 100 µM
TGI (SK-OV-3 ovarian): > 100 µM
TGI (HL-60(TB) leukemia): > 100 µM
TGI (KM20L2 colon): > 100 µM
TGI (EKVX NSCLC): > 100 µM
TGI (UACC-62 melanoma): > 100 µM
TGI (UACC-257 melanoma): > 100 µM
TGI (786-0 renal): > 100 µM
TGI (RXF-631 renal): > 100 µM
TGI (COLO 205 colon): > 100 µM
TGI (DLD-1 colon): > 100 µM
TGI (RPMI-8226 leukemia): > 100 µM
TGI (SNB-78 CNS): > 100 µM
TGI (U251 CNS): > 100 µM
TGI (HCC-2998 colon): > 100 µM
TGI (A498 renal): > 100 µM
TGI (NCI-H460 lung): > 100 µM
TGI (M14 melanoma): > 100 µM
TGI (OVCAR-5 ovarian): > 100 µM
TGI (LXFL 529 NSCLC): > 100 µM
TGI (SK-MEL-2 melanoma): > 100 µM
TGI (IGROV1 ovarian): > 100 µM
TGI (MALME-3M melanoma): > 100 µM
